Measurements: USRE47689E1, “Compounds for treating spinal muscular atrophy” (PTC Therapeutics, Inc., priority 2011, dated 2019)

Assays:
[1] = system: SMN2 minigene (full length SMN2 minigene mRNA containing SMN2 exon 7); assay: SMN2 minigene mRNA splicing RT-qPCR assay in cultured cells; assay type: cell-based, human; conditions: for exon 7 inclusion / SMN2mini FL mRNA relative to vehicle control: HEK293H cells with SMN2-A minigene; for exon 7 inclusion: relative to untreated cells; for SMN2mini FL mRNA relative to vehicle control: rising concentrations, 24 hr; for EC (1.5-fold): Homo sapiens, HEK293-H, HEK293H cells stably transfected with SMN2-A minigene, 24 hours, 7-point concentration curve, 1.5-fold relative to vehicle-treated cells, read-out: EC1.5x for production of full length SMN2 mRNA
Summary of the method: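 HEK293H cells stably carrying the SMN2-A minigene treated 24 h at 37° C with compound (DMSO, 200× stock), then lysed. Multiplex RT-qPCR (SMN primers 0.4 μM final; 40 cycles) measures full-length exon 7-containing minigene mRNA, normalized to GAPDH and to vehicle; EC1.5x derived and binned by stars.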

[2] = system: gems (Smn-dependent nuclear speckles); assay: Gems count (Smn-dependent nuclear speckle count) assay; assay type: cell-based, human; conditions: SMA Type 1 patient fibroblasts; 48 hours; fluorescence microscopy
Description: The level of Smn protein directly correlates with the amount of nuclear foci, also known as gems, produced upon staining the cell with a fluorescently labeled anti-Smn antibody (Liu and Dreyfuss, EMBO J., 1996, 15:3555). Gems are multi-protein complexes whose formation is nucleated by the Smn protein and the gems count assay is used to evaluate the level of Smn protein in the cell. As described herein, the gems count assay is used to quantify the level of Smn protein in SMA patient fibroblast cells treated with a test compound.
Protocol: Cells are thawed and incubated in DMEM-10% FBS for 72 hours, then trypsinized, counted and resuspended to 100,000 cells/mL in DMEM-10% FBS. 2 mL of the cell suspension is plated in a 6-well cell culture plate with a sterile cover slip and incubated for 3 to 5 hours. Test compounds are serially diluted 3.16-fold in 100% DMSO to generate a 7-point dilution curve. […]
Cell culture medium is aspirated from the wells containing cover slips and gently washed three times with cold PBS. […] The number of gems is counted per ≥150 nuclei and % activation is calculated using DMSO and 10 nM bortezomib as controls. For each test compound, the cells are examined at all wavelengths to identify test compounds with inherent fluorescence.

| Compound | exon 7 inclusion [1] | SMN2mini FL mRNA relative to vehicle control [1] | EC (1.5-fold) [1] | number of gems relative to DMSO [2] |
| --- | --- | --- | --- | --- |
| CCN1CCN(c2ccc3cc(-c4cn5cc(C)nc(C)c5n4)c(=O)oc3c2)C[C@@H]1C [Cpd 626, 3-(6,8-dimethylimidazo[1,2-a]pyrazin-2-yl)-7-[(3S)-4-ethyl-3-methylpiperazin-1-yl]-2H-chromen-2-one] | fully restored exon 7 inclusion relative to untreated cells | increased SMN2mini FL mRNA at low concentrations | < 0.1 µM | progressively more gems relative to cells treated with DMSO |
| CC(C)NCCc1ccc2cc(-c3nc4c(Cl)cccc4s3)c(=O)oc2c1 [Cpd 35, 3-(4-chloro-1,3-benzothiazol-2-yl)-7-[2-(propan-2-ylamino)ethyl]-2H-chromen-2-one] | fully restored exon 7 inclusion relative to untreated cells | increased SMN2mini FL mRNA at low concentrations | 0.3 to 1 µM | progressively more gems relative to cells treated with DMSO |
